According to patent US20080306107A1, “Compounds” (AstraZeneca AB, priority 2004, published 2008):
pIC50: −log10 of the molar value.

Target: T1, hVR1 (Homo sapiens, UniProt Q8NER1)
T1 construct: expressed in transfected cells
Test: hVR1 FLIPR (Fluorometric Image Plate Reader) screening assay, IC50 determination
Assay type: cell-based
Conditions: transfected CHO cells stably expressing hVR1; Fluo-4 calcium fluorescence; agonist 50 nM capsaicin or MES buffer pH 5.2
Experimental: 1. hVR1 FLIPR (Fluorometric Image Plate Reader) Screening Assay
Transfected CHO cells, stably expressing hVR1 (15,000 cells/well) are seeded in 50 ul media in a black clear bottom 384 plate (Greiner) and grown in a humidified incubator (37° C., 2% CO2), 24-30 hours prior to experiment.
Subsequently, the media is removed from the cell plate by inversion and 2 μM Fluo-4 is added using a multidrop (Labsystems). Following the 40 minutes dye incubation in the dark at 37° C. and 2% CO2, the extracellular dye present is washed away using an EMBLA (Scatron), leaving the cells in 40 ul of assay buffer (1×HBSS, 10 mM D-Glucose, 1 mM CaCl2, 10 mM HEPES, 10×7.5% NaHCO3 and 2.5 mM Probenecid).
FLIPR Assay —IC50 Determination Protocol
For IC50 determinations the fluorescence is read using FLIPR filter 1 (em […]). A cellular baseline recording is taken for 30 seconds, followed by a 20 μl addition of 10, titrated half-log concentrations of the test compound, yielding cellular concentration ranging from 3 μM to 0.1 nM. […] This consequently leading to a reduction in fluorescence signal and providing a reduced fluorescence reading, compared with no compound, buffer controls. Data is exported by the FLIPR program as a sum of fluorescence calculated under the curve upon the addition of capsaicin. […]

T1 sequence (Q8NER1 whole entry): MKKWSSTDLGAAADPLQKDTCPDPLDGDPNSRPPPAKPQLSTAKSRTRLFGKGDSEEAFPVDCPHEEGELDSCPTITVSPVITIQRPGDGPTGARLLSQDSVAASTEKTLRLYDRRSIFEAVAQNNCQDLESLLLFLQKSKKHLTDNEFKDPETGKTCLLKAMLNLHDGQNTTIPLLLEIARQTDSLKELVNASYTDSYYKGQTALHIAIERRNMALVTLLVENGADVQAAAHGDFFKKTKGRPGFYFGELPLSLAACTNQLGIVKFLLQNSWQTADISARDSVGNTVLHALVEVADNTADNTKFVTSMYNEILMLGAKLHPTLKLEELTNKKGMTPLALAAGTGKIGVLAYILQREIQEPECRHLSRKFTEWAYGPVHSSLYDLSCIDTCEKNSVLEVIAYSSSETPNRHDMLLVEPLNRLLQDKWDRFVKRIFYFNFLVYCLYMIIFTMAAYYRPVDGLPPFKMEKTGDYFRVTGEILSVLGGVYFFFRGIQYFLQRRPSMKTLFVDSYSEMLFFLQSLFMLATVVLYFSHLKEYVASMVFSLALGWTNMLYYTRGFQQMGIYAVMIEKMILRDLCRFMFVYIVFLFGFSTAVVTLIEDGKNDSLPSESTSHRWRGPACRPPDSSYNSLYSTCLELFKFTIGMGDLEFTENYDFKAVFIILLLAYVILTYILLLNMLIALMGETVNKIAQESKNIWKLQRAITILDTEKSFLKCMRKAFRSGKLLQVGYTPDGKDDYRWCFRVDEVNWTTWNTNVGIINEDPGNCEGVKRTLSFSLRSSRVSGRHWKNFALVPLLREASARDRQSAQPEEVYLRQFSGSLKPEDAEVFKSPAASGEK

| Structure (SMILES) | pIC50 |
| --- | --- |
| Cc1cc(C(F)(F)F)c2c(N)c(C(=O)NCCc3ccccc3)sc2n1 [Compound 11, 3-amino-6-methyl-N-(2-phenylethyl)-4-(trifluoromethyl)thieno[2,3-b]pyridine-2-carboxamide] | 6.15 |
| Cc1cc(C(F)(F)F)c2c(N)c(C(=O)NCCc3ccccc3C)sc2n1 [Compound 3, 3-amino-6-methyl-N-[2-(2-methylphenyl)ethyl]-4-(trifluoromethyl)thieno[2,3-b]pyridine-2-carboxamide] | 6.92 |
